Data from US20190091290A1, “MACROPHAGE STIMULATION IN CD47 BLOCKADE THERAPY” (TRILLIUM THERAPEUTICS INC., priority 2016, published 2019).
“Also recorded” adds a separate entry of the source.

Assays:
CD64 = experiment: FcγR (CD16, CD32, CD64) expression on re-polarized M0, M2a and M2b macrophages by flow cytometry; assay type: cell-based, human; conditions: overnight stimulation with the agent, FIG. 4
From the text: Heparinized whole blood was obtained from normal healthy human donors (Biological Specialty Corporation) and informed consent was obtained from all donors. Peripheral blood mononuclear cells (PBMCs) were isolated over Ficoll-Paque Plus density gradient (GE Healthcare) and CD14+ monocytes were isolated from PBMCs by positive selection using CD14 antibody-coated MicroBead separation (Miltenyi Biotec). Monocytes were differentiated into macrophages by culturing for at least 10 days in X-Vivo-15 media (Lonza) supplemented with 20 ng/mL M-CSF (PeproTech). Macrophages were washed and were polarized into M0, M2a, and M2b by culturing one day with 20 ng/mL M-CSF, 20 ng/mL IL-4 (PeproTech) or 50 ug/mL heat aggregated human gamma globulin (HAGG) and 20 ng/mL IL-1β (PeproTech), respectively. One day following polarization, polarization media was washed off, and cells were treated with 20 ng/mL IFN-γ (Peprotech), 1000 U/mL IFNa2a (PBL Assay Science), 20 ng/mL IL-10 (PeproTech), 10 ug/mL Poly (I:C) (InvivoGen), 1 ug/mL LPS (MDBiosciences), 1 ug/mL R848 (InvivoGen), or 10 ug/mL ODN2395 CpG (InvivoGen) overnight. On the next day, macrophages were harvested using enzyme-free cell dissociation buffer (ThermoFisher) for analysis of CD16, CD32 and CD64 expression. Macrophages were blocked with human Fc receptor binding inhibitor (ebioscience) and were stained with Near-IR LIVE/DEAD fixable dead cell stain (Invitrogen), FITC-conjugated anti-CD16 (Clone CB16), FITC-conjugated anti-CD32 (Clone FL18.26) and V450-conjugated anti-CD64 (Clone 10.1) in three independent cocktails. Cells were washed and resuspended in stabilizing fixative (BD Biosciences), and data was acquired on a FACSVerse flow cytometry machine, and data was analyzed using FlowJo software (Treestar Inc.). Macrophages were identified as live, single cells. Doublets were excluded by SSC-W and SSC-H discrimination.

[1] = tested on: M0, M2a and M2b macrophages; experiment: Phagocytic response to SIRPaFc after re-polarization of M0, M2a and M2b macrophages; assay type: cell-based, human; conditions: overnight treatment with the agent; FIGS. 3A-3C
From the text: Heparinized whole blood was obtained from normal healthy human donors (Biological Specialty Corporation) and informed consent was obtained from all donors. Peripheral blood mononuclear cells (PBMCs) were isolated over Ficoll-Paque Plus density gradient (GE Healthcare) and CD14+ monocytes were isolated from PBMCs by positive selection using CD14 antibody-coated MicroBead separation (Miltenyi Biotec). Monocytes were differentiated into macrophages by culturing for at least 10 days in X-Vivo-15 media (Lonza) supplemented with 20 ng/mL M-CSF (PeproTech). Macrophages were washed and were polarized into M0, M2a, and M2b by culturing one day with 20 ng/mL M-CSF, 20 ng/mL IL-4 (PeproTech) or 50 ug/mL heat aggregated human gamma globulin (HAGG) and 20 ng/mL IL-1β (PeproTech), respectively. One day following polarization, polarization media was washed off, and cells were treated with 20 ng/mL IFN-γ (PeproTech), 1000 U/mL IFNα2a (PBL Assay Science), 20 ng/mL IL-10 (PeproTech), 10 ug/mL Poly (I:C) (InvivoGen), 1 ug/mL LPS (MDBiosciences), 1 ug/mL R848 (InvivoGen), or 10 ug/mL ODN2395 CpG (InvivoGen) overnight. On the next day, macrophages were harvested using enzyme-free cell dissociation buffer (ThermoFisher) for flow-based phagocytosis assay. Human B cell lymphoma cell line, Toledo, was labeled with Violet Proliferation Dye 450 (BD Biosciences) and added to repolarized macrophages in a round-bottom non-tissue culture treated 96-well plate at a 1:5 effector:target ratio. […] Cells were acquired on a FACSVerse flow cytometer, and data was analyzed using FlowJo software (Treestar Inc.). Macrophages were identified as live, single, CD14+CD11b+ cells. Doublets were excluded by SSC-W and SSC-H discrimination. Phagocytosis was assessed as the % of macrophages that were VPD450+. Statistical significance was calculated by unpaired t-test vs isotype control using GraphPad Prism software.

[2] = tested on: cancer cells that present with a CD47+ phenotype; conditions: described in WO2014/094122; cited from earlier work
red blood cells = experiment: Binding to red blood cells
[3] = tested on: Human B cell lymphoma cell line, Toledo; experiment: Flow-based phagocytosis assay: polarized human monocyte-derived macrophages co-cultured with Toledo tumor cells; assay type: cell-based; conditions: 1 uM SIRPaFc, FIG. 1
From the text: Heparinized whole blood was obtained from normal healthy human donors (Biological Specialty Corporation) and informed consent was obtained from all donors. Peripheral blood mononuclear cells (PBMCs) were isolated over Ficoll-Paque Plus density gradient (GE Healthcare) and CD14+ monocytes were isolated from PBMCs by positive selection using CD14 antibody-coated MicroBead separation (Miltenyi Biotec). Monocytes were differentiated into macrophages by culturing for at least 10 days in X-Vivo-15 media (Lonza) supplemented with 20 ng/mL M-CSF (PeproTech). One day prior to the phagocytosis assay the monocyte-derived macrophages were either left untreated in M-CSF media (M0) or treated overnight with 20 ng/mL M-CSF and 300 ng/mL interferon-gamma (IFN-γ) (PeproTech) as M1, 50 ng/mL IFN-γ and 50 ng/mL LPS (MD Biosciences) as M1+LPS, 20 ng/mL IL-4 (PeproTech) as M2a, 20 ng/mL IL-1β (PeproTech) and 50 ug/mL heat aggregated human IgG (HAGG) as M2b or 20 ng/mL IL-10 (PeproTech) and 20 ng/mL TGF (PeproTech) as M2c. […] Cells were acquired on a FACSVerse flow cytometer, and data was analyzed using FlowJo software (Treestar Inc.). […] Doublets were excluded by SSC-W and SSC-H discrimination. % Phagocytosis was assessed as the % of macrophages that were VPD450+. Statistical significance was calculated by unpaired t-test vs isotype control using GraphPad Prism software, where p***<0.001.

CD47 = CD47 (Homo sapiens, UniProt Q08722); experiment: CD47 agonism upon binding
Chain of CD47 (Q08722 19-323): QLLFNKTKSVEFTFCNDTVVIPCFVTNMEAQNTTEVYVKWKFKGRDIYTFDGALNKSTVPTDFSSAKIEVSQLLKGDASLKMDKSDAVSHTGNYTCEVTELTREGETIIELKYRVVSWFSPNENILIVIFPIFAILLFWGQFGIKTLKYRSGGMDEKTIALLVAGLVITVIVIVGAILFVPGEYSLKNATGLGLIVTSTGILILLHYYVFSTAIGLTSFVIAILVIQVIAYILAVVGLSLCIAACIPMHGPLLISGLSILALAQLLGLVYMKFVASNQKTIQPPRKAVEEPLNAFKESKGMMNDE

## IFNα [reference compound]
CD64
  expression of CD64 on M0, M2a and M2b macrophages after repolarization: increased
CD64; listed as IFN-alpha
  expression of CD64 on M0, M2a and M2b macrophages after repolarization: most striking
[1]
  responsiveness to SIRPaFc (phagocytosis of Toledo cells) of M0, M2a and M2b macrophages after repolarization: increased

## SIRPaFc: human SIRPaFc comprising the V region of human SIRPa variant 2 fused to a wild type human IgG1 Fc region, SEQ ID NO: 3
[2]
  effects on the viability of CD47+ cancer cells: dramatic effects
Red blood cells
  binding to red blood cells: negligible binding
[3]; M0, M1, M1+LPS, M2a, M2b, M2c macrophages from human PBMC, vs control Fc
  phagocytosis of DLBCL Toledo cell line by all 6 macrophage subsets: increased phagocytosis
[3]; Toledo cells
  SIRPαFc induced phagocytosis by M1 (+/−LPS) and M2c MDMs compared to M0, M2a and M2b subsets: superior
CD47
  CD47 agonism when binding thereto: negligible CD47 agonism

## polyinosine-polycytidylic acid [Poly (I:C), reference compound]
CD64
  expression of CD64 on M0, M2a and M2b macrophages after repolarization: increased
[1]
  responsiveness to SIRPaFc (phagocytosis of Toledo cells) of M0, M2a and M2b macrophages after repolarization: increased

B1: IFNγ: interferon-gamma (PeproTech), macrophage stimulating cytokine (protein, UniProt P01579 24-161, looked up)
Interferon gamma: QDPYVKEAENLKKYFNAGHSDVADNGTLFLGILKNWKEESDRKIMQSQIVSFYFKLFKNFKDDQSIQKSVETIKEDMNVKFFNSNKKKRDDFEKLTNYSVTDLNVQRKAIHELIQVMAELSPAAKTGKRKRSQMLFRG
CD64
  expression of CD64 on M0, M2a and M2b macrophages after repolarization: increased
[1]
  responsiveness to SIRPaFc (phagocytosis of Toledo cells) of M0, M2a and M2b macrophages after repolarization: increased

B2: IL-10: interleukin-10 (PeproTech), macrophage stimulating cytokine (protein, UniProt P22301 19-178, looked up)
Interleukin-10: SPGQGTQSENSCTHFPGNLPNMLRDLRDAFSRVKTFFQMKDQLDNLLLKESLLEDFKGYLGCQALSEMIQFYLEEVMPQAENQDPDIKAHVNSLGENLKTLRLRLRRCHRFLPCENKSKAVEQVKNAFNKLQEKGIYKAMSEFDIFINYIEAYMTMKIRN
CD64
  expression of CD64 on M0, M2a and M2b macrophages after repolarization: increased; also recorded: most striking
[1]
  responsiveness to SIRPaFc (phagocytosis of Toledo cells) of M0, M2a and M2b macrophages after repolarization: increased
